Test results reported in US20230069886A1, “AROMATIC SULPHONAMIDES DERIVATIVES THAT INHIBITS PDI A3, THEIR SYNTHESIS AND USE” (Uniwersytet Jagiellonski, priority 2020, published 2023).
In brackets after ≈: the same amount, converted by molar mass. Where two headings read alike, the source gives them in different places.

Columns and labels:
arterial thrombosis = test: In vivo models of arterial thrombosis; design: species or system rat or mice; settings: FIG. 5
Method: To confirm antithrombotic activity of compounds of invention, inhibitors of PDIA3, pharmacological activity of selected compounds was tested in vivo in the rat or mice model of arterial thrombosis. Wistar rats were anaesthetized with pentobarbital (40 mg/kg, i.p.) and placed in a supine position on a heated (37° C.) operating table. Arterial thrombosis was induced by electrical stimulation of the right common carotid artery, as previously described (Kramkowski et al., 2012). Briefly, the anode, a stainless steel L-shaped wire, was inserted under the artery and connected to a constant current generator. The cathode was attached subcutaneously to the hind limb. The artery was stimulated (1 mA) for 10 min. Fifty-five minutes after the beginning of stimulation, the segment of the common carotid artery containing the formed thrombus was dissected and opened lengthwise, and the thrombus was completely removed and air-dried at room temperature for 24 h. Thrombus was then weighed in a blinded manner. Antithrombotic effects of compounds of invention in mice was analyzed using intravital fluorescence confocal microscopy as described previously (Hayashi T et al., 2008). […] Changes in fluorescence intensity were measured as described previously (Hayashi T et al., 2008, Kramkowski et al., 2002)

human platelets = test: Light transmission aggregometry of collagen-stimulated human platelet-rich plasma; format: cell-based; settings: human PRP, FIG. 2, 3
Method: Anti-platelet activity of compounds of invention was assessed using light transmission aggregometry assay of human platelet-rich plasma (PRP). Venous blood was obtained from male volunteers at the University Hospital Blood Bank Centre. Volunteer donors had not taken any medicines for the preceding two weeks. Blood was collected into vials containing sodium citrate (3.2%, 9:1 v/v) as an anti-coagulant agent. To obtain platelet rich plasma (PRP), blood was centrifuged at 260×g for 15 min. The platelet […] plasma fraction (used as a blank sample) was obtained by centrifugation of the remaining blood for 10 min at 2600×g. Aggregation of blood platelets was assessed in PRP with a dual channel Chronolog aggregometer (CHRONO-LOG) using a method previously described by Born^35. PRP (500 μl) was equilibrated for 2 min at 37° C. with a continuous stirring at 800 rpm and then stimulated with collagen to cause aggregation. At the beginning of each experiment, concentrations of collagen that induced sub-maximum aggregation response were determined. These concentrations were in the range of […], respectively. All the tested compounds were added 2 min prior to stimulation of platelets with collagen. Transmittance was read 6 min after stimulation of platelets with an agonist. […]

MDA-MB-231 = test: MTT antiproliferative assay, 72 h, with or without estradiol, MDA-MB-231; format: cell-based, human; settings: for IC50: Homo sapiens, MDA-MB-231, 72 hours exposition, MTT
Method: (§1) Anticancer activity of selected compounds of invention, PDI A3-inhibitors has been also tested in vitro in antiproliferative assay in normoxic and hypoxic conditions as well in estrogen-stimulated cancer cells. In the experiment, cells were seeded on 96-well plates (Sarstedt, Germany) in appropriate culture medium at a density of 10^5 cells/mL 24 h before adding the tested compounds. Cells were treated with each compound in four concentrations in the range 0.1-100 μg/mL. […] After 72 h of compound treatment at 37° C., 5% CO2 humid atmosphere and in wo different oxygen level conditions: 21%—normal and <1%—hypoxia. In some experiments the MDA-MB-231 and MCF-7 cells were seeded with or without 200 nM estradiol and after 24 h the tested compounds were added. A previously described sulforhodamine B antiproliferative assay was used with minor modifications (Skehan P et al., 1990). Briefly, cells were fixed with 50 μL/well of 50% (w/v) trichloroacetic acid (Avantor Performance Materials, Gliwice, Poland). After 1 h incubation, plates were washed several times with tap water and 50 μL of 0.4% (w/v) solution of sulforhodamine B (Sigma-Aldrich, Germany) in 1% (v/v) acetic acid (Avantor Performance Materials, Gliwice, Poland) was added to each well. After 30 min incubation at room temperature, unbound dye was washed out with 1% (v/v) acetic acid, whereas bound dye was solubilized with 10 mM unbuffered TRIS (Avantor Performance Materials, Gliwice, Poland) solution. The entire procedure was performed using a BioTek EL-406 washing station (BioTek Instruments, USA). After additional 30 min, absorbance was read using a Biotek Hybrid H4 reader (BioTek Instruments, USA) at 540 nm wavelength. MTT assay was used alternatively for HL-60 cell line and in the experiment in which estrogens are added (specified in the table legend). Absorbance was measured using a Biotek Hybrid H4 reader at 570 nm wavelength for MTT assay.
(§2) Compounds at each concentration were tested in triplicate in a single experiment and each experiment was repeated at least three times independently. Results are presented as mean IC50±SD.

MCF-7 = test: MTT antiproliferative assay, 72 h, with or without estradiol, MCF-7; format: cell-based, human; settings: for IC50: Homo sapiens, MCF7, 72 hours exposition, MTT
Method: as §1, §2

HT-29 = test: MTT antiproliferative assay, 72 h, HT-29; format: cell-based, human; settings: Homo sapiens, HT-29, 72 hours exposition, read-out: IC50 [μg/ml] HT-29 normal
Method: as §1, with “A previously described sulforhodamine B antiproliferative assay was used with minor modifications (Skehan P et al., 1990).” left out, “MTT assay was used alternatively for HL-60 cell line and in the experiment in which estrogens are added (specified in the table legend).” left out
as §2

HL-60 = test: MTT antiproliferative assay, 72 h, HL-60; format: cell-based, human; settings: Homo sapiens, HL-60, 72 hours exposition, read-out: IC50 [μg/ml] HL-60 normal
Method: as §1, §2

MCF-10A = test: Selectivity index MCF-10A versus MCF-7; format: cell-based; settings: 72 hours exposition
Method: as §1
Compounds at each concentration were tested in triplicate in a single experiment and each experiment was repeated at least three times independently. […]

[1] = tested on: MDA-MB-231 cell transmigration across IL-1β-stimulated hLMVECs; test: Transendothelial migration of MDA-MB-231 cells across hLMVEC monolayer; format: cell-based, human; settings: IL-1β 10 ng/mL (6 hours)-stimulated hLMVECs, 24 h co-culture, FIG. 6
Method: To assess whether compounds of invention, PDI A3-inhibitors are also effective as inhibitors of cancer cell transmigration through endothelium the transmigration assay with MDA-MB-231/lung microvascular endothelium was used as described previously (Stojak et al., 2018). Cell migration was assayed in 24-well, 6.5-mm internal-diameter Transwell plates (8.0 μm pore size; BD Pharmingen). Human lung microvascular endothelial cells (hLMVECs) were seeded into 24-well plates (seeding density 5×10^4 cells/insert) on the upper side of the filter and left to grow to confluence. After confluent monolayer formation, hLMVECs were pre-treated with 10 ng/mL IL-1β for 6 h. Prior to use in transmigration assay, cancer cells were pre-incubated with various concentrations (3, 10, 30, 50, 100 μM) of tested inhibitors of PDIA3, C-3390, C-3399 for 30 min. Then, MDA-MB-231 cells (each 5×10^4 per well) were placed into upper chambers and tested PDI inhibitors at various concentrations (1, 10, 30, 50, 100 μM) were given. Lower chambers were filled with medium containing chemoattractant (20% FBS or 100 ng/mL SDF-1α). After 24 h of co-culture, hLMVEC monolayers and non-migrating cancer cells on the upper surface of the membrane were removed. […] The cell number was determined by measuring the fluorescence using plate reader. […]

| Compound | Anti-thrombotic effects in vivo (arterial thrombosis) | Inhibition of platelet aggregation (human platelets) | IC50 (MDA-MB-231; not pretreated with estradiol, read-out: IC50 [μg/ml] MDA-MB-231 normal) | IC50 (MDA-MB-231; pretreated with 200 nM estradiol, read-out: IC50 [μg/ml] MDA-MB-231 +estradiol) | Sensitivity of MDA-MB-231 line after treatment with estradiol (MDA-MB-231; estradiol (200 nM), Table 4) | IC50 (MCF-7; not pretreated with estradiol, read-out: IC50 [μg/ml] MCF-7 normal) | IC50 (MCF-7; pretreated with 200 nM estradiol, read-out: IC50 [μg/ml] MCF-7 +estradiol) | Lower sensitivity after treatment with estradiol in MCF-7 (MCF-7; estradiol (200 nM), Table 4) | IC50 (HT-29) | IC50 (HL-60) | Selectivity index (SI): IC50 of MCF-10A/IC50 of MCF-7 (MCF-10A) | Inhibition of MDA-MB-231 cell transmigration [1] |
| --- | --- | --- | --- | --- | --- | --- | --- | --- | --- | --- | --- | --- |
| COC(=O)C1CN1S(=O)(=O)c1ccc(N(C)C)cc1 (stereo not drawn) [Compound C-3343, Methyl 1-[4-(dimethylamino)phenyl]sulfonylaziridine-2-carboxylate] | anti-thrombotic effects | – | – | – | – | – | – | – | – | – | – | – |
| COC(=O)C1CN1S(=O)(=O)c1ccc2c(N(C)C)cccc2c1 (stereo not drawn) [Compound C-3399, Methyl 1-[[5-(dimethylamino)-2-naphthyl]sulfonyl]aziridine-2-carboxylate] | – | lowest EC50 | 2.9 ± 0.3 µg/mL (≈ 8.67 µM) | 6.4 ± 1.9 µg/mL (≈ 19.1 µM) | slightly lower sensitivity | 3.7 ± 0.3 µg/mL (≈ 11.1 µM) | 4.3 ± 0.3 µg/mL (≈ 12.9 µM) | not observed | 4.3 ± 0.2 µg/mL (≈ 12.9 µM) | 2.4 ± 0.3 µg/mL (≈ 7.18 µM) | 1.6 | inhibited MDA-MB-231 cell transmigration |
